For 25 compounds, GR50 results are on record in ChEMBL document CHEMBL3046357, “Inhibitors of biotin biosynthesis as potential herbicides” (2004).

Structures are written as SMILES. Where only a bound is given, the exact number is not on record here.

In the assay the test system is Arabidopsis thaliana. Description: Herbicidal activity against Arabidopsis thaliana after 3 weeks. It counts as functional.

In turn, `Cl.NC/C(CCCCCC(=O)O)=N/O` showed a GR50 of 40 ppm.

`COC(=O)CCCCCC1NC(=S)NC1CSC` (stereo not given) showed a GR50 of 44 ppm.

`O=C(O)CCCCCC1CNC(=O)N1` (racemic) registered a GR50 of 35 ppm.

On to `Cl.NC(CO)C(=O)CCCCCC(=O)O` (stereo not given), for which the GR50 is 100 ppm.

Take `CCC1NC(=O)NC1CCCCCC(=O)O` (stereo not given): the GR50 turned out to be 35 ppm.

Consider `COC(=O)CCCCC/C(CN)=N\O.Cl`, for which the GR50 was 53 ppm.

`CSCCC(N)C(N)CCCCCC(=O)O.Cl.Cl` (stereo not given) came in with a GR50 of 0.78 ppm.

For `CC(C)C(N)C(=O)CCCCCC(=O)O.Cl` (stereo not given), the GR50 is recorded as 37 ppm.

Take `CCC(N)C(N)CCCCCC(=O)O.Cl.Cl` (stereo not given): the GR50 amounted to 76 ppm.

The compound `Cl.Cl.NCC(N)CCCCCC(=O)O` (stereo not given) had a GR50 of 53 ppm.

The compound `CCC(N)C(=O)CCCCCC(=O)O.Cl` (stereo not given) had a GR50 of 43 ppm.

For `CSCCC1NC(=O)NC1CCCCCC(=O)O` (stereo not given), the GR50 is reported as over 780 ppm.

For `COC(=O)CCCCCC1NC(=S)NC1CCSC` (stereo not given), the GR50 is recorded as over 780 ppm.

For the compound `Cl.NC(CS)C(=O)CCCCCC(=O)O` (stereo not given), the GR50 is listed as over 780 ppm.

Turning to `COC(=O)CCCCCC(=O)C(N)CO.Cl` (stereo not given), the GR50 came out at 53 ppm.

`CC(O)C(N)C(=O)CCCCCC(=O)O.Cl` (stereo not given) registered a GR50 of 250 ppm.

`COC(=O)CCCCCC(=O)C(N)CSC.Cl` (stereo not given) had a GR50 of 250 ppm.

For `CC(C)C(N)/C(CCCCCC(=O)O)=N/O.Cl` (stereo not given), the GR50 was over 780 ppm.

For `CSCC1NC(=O)NC1CCCCCC(=O)O` (stereo not given), the GR50 is recorded as 46 ppm.

For the compound `CSCCC(N)C(=O)CCCCCC(=O)O.Cl` (stereo not given), the GR50 is recorded as over 780 ppm.

For `COC(=O)CCCCCC(=O)C(N)CS.Cl` (stereo not given), the GR50 was found to be 120 ppm.

`CSCC(N)C(=O)CCCCCC(=O)O.Cl` (stereo not given) displayed a GR50 of over 780 ppm.

The compound `Cl.NCC(=O)CCCCCC(=O)O` showed a GR50 of 8 ppm.

Compound `CCC(N)/C(CCCCCC(=O)O)=N/O.Cl` (stereo not given) registered a GR50 of over 780 ppm.

In turn, `COC(=O)CCCCCC(=O)C(N)C(C)O.Cl` (stereo not given) yielded a GR50 of 100 ppm.
